Assay results published in patent publication US9187492B2, “Pyripyropene derivative having ACAT2 inhibiting activity and stable to metabolizing enzymes” (School Juridical Person Kitasato Institute, priority 2010, dated 2015).
pIC50: −log10 of the molar value. Read-outs that look alike come from different tables or passages of the source.

Columns and labels:
ACAT2 = target: T1, ACAT2 (Mus musculus, UniProt O88908); experiment: Measurement of ACAT2-inhibiting activity (murine hepatic microsome, [14C]cholesteryl oleate formation); assay type: biochemical
T1 construct: The resulting sediment was collected as a microsome fraction; from tissue; host or cells: mouse liver (hepatic microsome membrane fraction)
T1 sequence (O88908 1-525): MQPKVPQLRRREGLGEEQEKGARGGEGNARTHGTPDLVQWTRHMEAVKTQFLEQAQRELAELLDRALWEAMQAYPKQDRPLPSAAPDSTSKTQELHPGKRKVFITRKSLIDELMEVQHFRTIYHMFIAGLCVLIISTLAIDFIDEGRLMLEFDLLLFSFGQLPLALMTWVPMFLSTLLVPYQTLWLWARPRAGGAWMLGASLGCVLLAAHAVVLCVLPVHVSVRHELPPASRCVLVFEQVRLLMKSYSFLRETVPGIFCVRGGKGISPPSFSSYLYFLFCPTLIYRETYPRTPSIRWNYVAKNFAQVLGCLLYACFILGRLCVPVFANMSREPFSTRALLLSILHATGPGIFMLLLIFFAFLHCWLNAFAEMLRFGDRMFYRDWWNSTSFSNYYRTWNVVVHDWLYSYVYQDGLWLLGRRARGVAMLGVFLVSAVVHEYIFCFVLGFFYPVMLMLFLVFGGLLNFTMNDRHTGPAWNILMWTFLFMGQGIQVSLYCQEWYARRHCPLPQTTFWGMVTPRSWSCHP
Experimental: The enzyme source which was used was a membrane fraction derived from murine hepatic microsome. Mouse livers were homogenized in buffer solution A (50 mM Tris HCl solution (pH 7.8), 1 mM ethylene diamine tetraacetate, and 1 mM phenylmethanesulfonyl fluoride) using a Potter-type homogenizer (Tokyo-Riko). The homogenate was centrifuged at 12000×g, and the supernatant was subjected to ultracentrifugation at 100000×g. The resulting sediment was collected as a microsome fraction, and this fraction was adjusted so as to have a protein concentration of 5 mg/mL using buffer solution A.
As a control, 10 μL of methanol were used in place of the pyripyropene derivative.
The chloroform layer was evaporated to dryness and was used to spot a thin layer chromatography plate (silica gel plate, Merck, 0.5 mm thickness). Elution for separation was carried out using hexane/diethyl ether/acetic acid (70:30:1, v/v) as an eluant.
wherein the background is the radioactivity of a thin layer chromatography plate which was not spotted.

[1] = Stability against metabolizing enzymes in the liver (hepatic microsome); settings: time until remaining amount reached 50%, 37° C.; for half-life at 6 μg/mL: female, Sprague-Dawley (SD), rat, liver microsomes, pH 7.4, Half-life; for Half-life: female SD rat hepatic microsome, 6 μg/mL, pH 7.4
in vitro = settings: female, Sprague-Dawley (SD), rat, microsomes, pH 7.4, Half-life
[2] = female, Sprague-Dawley (SD), rat, microsomes, 6 μg/mL, pH 7.4
[3] = murine hepatic microsome membrane fraction, 5 min at 37° C.; read-out: Inhibitory activity (concentration required for 50% inhibition of ACAT 2 = IC50)
[4] = relative to PRD 043; class symbols

With `COc1cccc(C(=O)O[C@H]2CC3C(C)(COC(C)=O)[C@@H](OC(C)=O)CC[C@]3(C)C3[C@@H](O)c4c(cc(-c5cccnc5)oc4=O)O[C@@]32C)c1` (some centres unmarked) [PRD043, reference compound] the pIC50 (ACAT2; read-out: Inhibitory activity (concentration required for 50% inhibition of ACAT 2 = IC50); murine hepatic microsome membrane fraction, 5 min at 37° C.) was under 8.00, the “Specific activity ((IC50 of the test compound)/(IC50 of PRD 043))” value (shortened to “Specific activity”) (ACAT2; relative to PRD 043; given as number) was 1 and the half-life at 6 μg/mL [1] was at least 9 h. The Half-life [1] was over 9 h.
In the case of `CC12CO[C@@H](c3ccccc3)O[C@H]1CC[C@@]1(C)C2C[C@H](OC(=O)c2ccccc2)[C@@]2(C)Oc3cc(-c4cccnc4)oc(=O)c3[C@H](O)C12` (some centres unmarked) [PRD122, 1,11-O-benzylidene-7-O-benzoyl-1,7,11-trideacetylpyripyropene A], the pIC50 (ACAT2; [3]) was 9.00 to 9.30, the “Specific activity” value (ACAT2; [4]) was “+++ (10<specific activity≦20)” and the half-life at 6 μg/mL [1] was at least 9 h. The Half-life [1] was over 9 h.
With `CC(C)C(=O)OCC1(C)C2C[C@H](OC(=O)C3CCCCC3)[C@@]3(C)Oc4cc(-c5cccnc5)oc(=O)c4[C@H](O)C3[C@@]2(C)CC[C@@H]1OC(=O)C(C)C` (some centres unmarked) [PRD074, 7-O-cyclohexanecarbonyl-1,11-O-diisobutyryl-1,7,11-trideacetylpyripyropene A] the pIC50 (ACAT2; [3]) was 9.00 to 9.30, the “Specific activity” value (ACAT2; [4]) was “+++ (10<specific activity≦20)” and the half-life at 6 μg/mL [1] was at least 9 h. For the same molecule, the Half-life [1] was over 9 h.
In the case of `CC(=O)OC[C@@]1(C)[C@@H]2C[C@H](OC(C)=O)[C@@]3(C)Oc4cc(-c5cccnc5)oc(=O)c4[C@H](O)[C@@H]3[C@@]2(C)CC[C@@H]1OC(C)=O` [PPA, pyripyropene A], the half-life at 6 μg/mL (in vitro) was 1 h and the Half-life [2] was under 1 h.
